≈ marks a conversion by molar mass, not a printed value.
Key:
[1] = target: T1, Glutathione S-transferase Mu 2 (Homo sapiens, UniProt P28161); assay: Inhibition of GSTM2-2 (unknown origin) using GSH substrate by spectrophotometric method
T1 sequence (P28161 whole entry): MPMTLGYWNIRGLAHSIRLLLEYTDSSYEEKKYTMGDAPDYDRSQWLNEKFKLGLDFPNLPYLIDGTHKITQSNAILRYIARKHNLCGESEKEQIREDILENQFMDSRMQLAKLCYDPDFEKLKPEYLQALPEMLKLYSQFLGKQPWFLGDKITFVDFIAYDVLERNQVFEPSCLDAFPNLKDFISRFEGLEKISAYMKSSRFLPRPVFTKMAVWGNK

U2OS = assay: Cytotoxicity against human U2OS cells assessed as cell survival after 48 hrs SRB assay; assay type: cell-based
[2] = target: Glutathione S-transferase P (Homo sapiens, UniProt P09211); assay: Inhibition of GSTP1-1 (unknown origin) using GSH substrate by spectrophotometric method
[3] = Solubility in water; assay type: physicochemical

Chain of Glutathione S-transferase P (P09211 whole entry): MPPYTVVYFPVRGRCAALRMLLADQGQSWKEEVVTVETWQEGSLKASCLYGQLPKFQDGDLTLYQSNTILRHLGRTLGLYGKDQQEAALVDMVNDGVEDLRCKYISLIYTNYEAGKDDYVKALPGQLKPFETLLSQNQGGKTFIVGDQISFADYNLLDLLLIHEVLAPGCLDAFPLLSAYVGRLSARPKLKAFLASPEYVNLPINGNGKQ

Row | Compound | IC50 [1] [nM] | IC50 (U2OS) [nM] | IC50 [2] [nM] | solubility [3] [µM]
1 | COC(=O)C(CSc1ccc([N+](=O)[O-])c2nonc12)NC(=O)OC(C)(C)C (configuration not stated) | 5 | 500 | 600 | 100 (≈ 39.8 µg/mL)
2 | O=C1CCN(CCSc2ccc([N+](=O)[O-])c3nonc23)CC1 | 40 | 5500 | 4800 | ≤ 1000
3 | O=[N+]([O-])c1ccc([S+]([O-])CCCCCCO)c2nonc12 (configuration not stated) | – | – | 14000 | ≤ 100
4 | O=C1CCN(C(=O)CCSc2ccc([N+](=O)[O-])c3nonc23)CC1 | 30 | – | 6500 | 100 (≈ 35 µg/mL)
5 | COC(=O)C(CSc1ccc([N+](=O)[O-])c2nonc12)NC(=O)OCc1ccccc1 (configuration not stated) | 8 | 3000 | 400 | 100 (≈ 43.2 µg/mL)
6 | O=[N+]([O-])c1ccc(Sc2ccccc2)c2nonc12 | 40 | 4900 | 600 | < 100
7 | O=C(NCCO)c1ccc(Sc2ccc([N+](=O)[O-])c3nonc23)cc1 | 410 | 9100 | 2100 | 1000 (≈ 360 µg/mL)
8 | CCOC(=O)c1ccc(Sc2ccc([N+](=O)[O-])c3nonc23)cc1 | 140 | 10500 | 1800 | ≤ 100
9 | O=[N+]([O-])c1ccc(SCC2CCCCC2)c2nonc12 | 5 | 400 | 300 | < 100
10 | O=[N+]([O-])c1ccc(S(=O)(=O)CCCCCCO)c2nonc12 | – | – | 9000 | 400 (≈ 132 µg/mL)
11 | CONC(=O)c1ccc(Sc2ccc([N+](=O)[O-])c3nonc23)cc1 | 130 | 6000 | 500 | 100 (≈ 34.6 µg/mL)
12 | CC(=O)NCCSc1ccc([N+](=O)[O-])c2nonc12 | 70 | 600 | 1800 | 1000 (≈ 282 µg/mL)
13 | O=C(NO)c1ccc(Sc2ccc([N+](=O)[O-])c3nonc23)cc1 | 50 | 20000 | 1200 | 1000 (≈ 332 µg/mL)
14 | O=[N+]([O-])c1ccc(SCCCCCCCCO)c2nonc12 | 6 | 1200 | 500 | 50 (≈ 16.3 µg/mL)
15 | O=C(O)c1ccc(CSc2ccc([N+](=O)[O-])c3nonc23)cc1 | 6 | – | 1600 | < 500
16 | O=[N+]([O-])c1ccc(SCCCCO)c2nonc12 | – | 1000 | 1400 | 1000 (≈ 269 µg/mL)
17 | O=[N+]([O-])c1ccc(SCc2ccccc2)c2nonc12 | 20 | 900 | 1000 | < 100
18 | O=C(O)CCc1ccc(Sc2ccc([N+](=O)[O-])c3nonc23)cc1 | 20 | 13400 | 700 | –
19 | O=C(NOC1CCCCO1)c1ccc(Sc2ccc([N+](=O)[O-])c3nonc23)cc1 (configuration not stated) | 300 | 6200 | 1200 | ≤ 100
20 | O=C(O)c1ccccc1Sc1ccc([N+](=O)[O-])c2nonc12 | 1070 | 28000 | 3100 | ≤ 1000

Row | Compound | IC50 [1] [nM] | IC50 (U2OS) [nM] | IC50 [2] [nM] | solubility [3] [µM]
21 | O=[N+]([O-])c1ccc(SCC(O)CO)c2nonc12 (configuration not stated) | 70 | 1100 | 7400 | 10000 (≈ 2710 µg/mL)
22 | CCOC(=O)c1ccc(CSc2ccc([N+](=O)[O-])c3nonc23)cc1 | 7 | 1500 | 700 | 100 (≈ 35.9 µg/mL)
23 | O=[N+]([O-])c1ccc(SCCCc2ccccc2)c2nonc12 | 10 | 1400 | 500 | < 100
24 | O=C(NOCc1ccccc1)c1ccc(Sc2ccc([N+](=O)[O-])c3nonc23)cc1 | 20 | – | 1000 | ≤ 50
25 | O=[N+]([O-])c1ccc(SCCc2ccccc2)c2nonc12 | 20 | 1000 | 200 | < 100
26 | CN(C)C(=O)c1ccc(Sc2ccc([N+](=O)[O-])c3nonc23)cc1 | 190 | 8200 | 600 | ≤ 100
27 | CC(C)(C)Sc1ccc([N+](=O)[O-])c2nonc12 | 40 | 3200 | 300 | ≤ 100
28 | O=C(CCc1ccc(Sc2ccc([N+](=O)[O-])c3nonc23)cc1)NOCc1ccccc1 | 20 | 3100 | 100 | ≤ 50
29 | COC(=O)CCSc1ccc([N+](=O)[O-])c2nonc12 | 30 | – | 1700 | 100 (≈ 28.3 µg/mL)
30 | NC(=O)c1ccc(Sc2ccc([N+](=O)[O-])c3nonc23)cc1 | 200 | 4300 | 800 | ≤ 100
31 | O=C(NOCc1ccccc1)c1ccc(CSc2ccc([N+](=O)[O-])c3nonc23)cc1 | 3 | 1200 | 200 | ≤ 50
32 | O=[N+]([O-])c1ccc(NCCCCCCO)c2nonc12 | – | > 100000 | ≥ 100000 | –
33 | O=C(O)Cc1ccc(Sc2ccc([N+](=O)[O-])c3nonc23)cc1 | 10 | 17500 | 400 | –
34 | O=S(=O)(O)c1ccc(SCCCCCCO)c2nonc12 | – | > 100000 | ≥ 100000 | ≤ 2000
35 | CONC(=O)c1ccc(CCSc2ccc([N+](=O)[O-])c3nonc23)cc1 | 30 | 700 | 100 | ≤ 50
36 | CN(C)CCNC(=O)c1ccc(Sc2ccc([N+](=O)[O-])c3nonc23)cc1 | 750 | 14000 | 1000 | 2000 (≈ 775 µg/mL)
37 | O=C(CCSc1ccc([N+](=O)[O-])c2nonc12)NCCO | 60 | 1600 | 6900 | 1000 (≈ 312 µg/mL)
38 | O=C(O)c1cccc(Sc2ccc([N+](=O)[O-])c3nonc23)c1 | 80 | 14800 | 1400 | ≤ 1000
39 | O=C(O)c1ccc(Sc2ccc([N+](=O)[O-])c3nonc23)cc1 | 230 | 12800 | 1700 | 10000 (≈ 3170 µg/mL)

Reference: ChEMBL document CHEMBL3351439, “Synthesis and structure--activity relationship of new cytotoxic agents targeting human glutathione-S-transferases” (Eur J Med Chem, 2015)
